Reference: patent US7939320B2, “Astaxanthine biosynthesis in eukaryotes” (Peter und Traudl Engelhorn-Stiftung zur Forderung der …, priority 2005, dated 2011)

Legend:
[1] = test system: H. pluvialis phytoene desaturase Leu504Arg mutants; test: Resistance to norflurazon of Leu504Arg phytoene desaturase mutants compared with wild type; format: cell-based, Haematococcus pluvialis; details: mutants with leucine to arginine substitution at position 504 of PDS
Excerpt: The amino acid substitution according to the invention from leucine to arginine at position 504 of the H. pluvialis PDS protein corresponds to the Leu437Arg substitution in Synechococcus PCC7942 (FIG. 2). For this purpose, the Leu codon “CTG” is replaced by the Arg codon “CGC” by directed mutagenesis. This mutation imparts, to the mutants, the highest known resistance factor to norflurazon. The resistance which has been conferred imparts, to the mutants according to the invention, a resistance to norflurazon which is up to 70-fold higher in comparison with the wild type. In accordance with the invention, norflurazon concentrations of […] are used as selection substance.
A portion of the phytoene desaturase 6.1 kilobases in size was isolated from a genomic DNA library of H. pluvialis and subcloned into the multiple cloning site (MCS) of the pBluescriptSK vector (stratagene) via the restriction cleavage sites XbaI and XhoI. A nucleotide substitution from CTG to CGC was carried out via directed mutagenesis with the primers PDS-Qmut-plu2 CCAAGCAGAAGTACCGCGCCTCCATGGAGGG (SEQ ID NO: 8)and PDS-Qmut-min2 CCCTCCATGGAGGCGCGGTACTTCTGCTTGG (SEQ ID NO: 9); the plasmid was named pPDS-Q2. This nucleotide substitution led to an amino acid substitution from leucine to arginine in codon 504 (FIG. 2), and confers to mutants a resistance to norflurazon.

H. pluvialis WT cells = test: Growth of H. pluvialis WT cells on OHA plates containing norflurazon; format: cell-based, Haematococcus pluvialis; details: norflurazon 0.7 μM

## CNc1cnn(-c2cccc(C(F)(F)F)c2)c(=O)c1Cl [norflurazon]
[1]
  resistance to norflurazon, fold higher in comparison with the wild type: up to 70 fold
H. pluvialis WT cells
  growth of the WT cells: greatly inhibited
